Data: patent US8470828B2, “Anellated pyridine compounds” (Hoffmann-La Roche Inc., priority 2010, dated 2013)

Key:
human D2 receptor = molecular target: T1, human D2 receptor (Homo sapiens, UniProt P14416); assay: Radioligand binding to cloned human D2 receptor expressed in HEK-293 EBNA cells ([3H]-spiperone); conditions: HEK293 EBNA cell membranes, approximately 0.7 nM [3H]-spiperone, 1 h at RT
T1 construct: expressed in transfected cells; host or cells: HEK293 EBNA cells, transient transfection; membrane preparation
T1 sequence (P14416 whole entry): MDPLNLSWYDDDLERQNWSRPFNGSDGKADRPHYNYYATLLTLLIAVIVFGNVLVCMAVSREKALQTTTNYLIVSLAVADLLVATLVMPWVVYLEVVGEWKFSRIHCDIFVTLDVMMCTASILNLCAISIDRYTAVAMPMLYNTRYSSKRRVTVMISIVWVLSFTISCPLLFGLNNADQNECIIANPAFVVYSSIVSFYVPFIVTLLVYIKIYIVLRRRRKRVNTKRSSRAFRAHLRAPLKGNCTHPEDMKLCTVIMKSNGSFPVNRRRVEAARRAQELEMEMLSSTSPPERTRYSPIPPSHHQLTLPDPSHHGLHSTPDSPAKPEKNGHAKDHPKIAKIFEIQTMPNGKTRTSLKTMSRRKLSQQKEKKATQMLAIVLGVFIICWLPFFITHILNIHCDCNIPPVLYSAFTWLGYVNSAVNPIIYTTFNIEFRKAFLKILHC

human D3 receptor = human D3 receptor (Homo sapiens, UniProt P35462); assay: Radioligand binding to cloned human D3 receptor expressed in HEK-293 EBNA cells ([3H]-spiperone)
human D3 receptor, sequence (P35462 whole entry): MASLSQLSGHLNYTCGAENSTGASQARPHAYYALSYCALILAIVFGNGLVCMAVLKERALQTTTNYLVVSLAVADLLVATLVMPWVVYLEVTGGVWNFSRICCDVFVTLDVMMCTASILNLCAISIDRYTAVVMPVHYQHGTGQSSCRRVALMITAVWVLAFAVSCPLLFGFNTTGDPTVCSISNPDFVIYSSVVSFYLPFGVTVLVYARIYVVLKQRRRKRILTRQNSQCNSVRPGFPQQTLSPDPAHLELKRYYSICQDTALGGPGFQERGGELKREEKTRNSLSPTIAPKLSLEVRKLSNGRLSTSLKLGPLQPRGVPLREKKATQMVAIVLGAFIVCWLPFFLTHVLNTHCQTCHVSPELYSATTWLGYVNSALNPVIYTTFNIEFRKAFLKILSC
Protocol: HEK293 EBNA cells were transiently transfected with expression plasmids encoding for the human D2 or D3 or for the human 5-HT2A receptor, respectively. The cells were harvested 48 h post-transfection, washed three times with cold PBS and stored at −80° C. prior to use. The pellet was suspended in cold 50 mM Tris-HCl buffer comprising 10 mM EDTA (pH 7.4) and was homogenized with a Polytron (Kinematica A G, Basel, Switzerland) for 20-30 sec at 12.000 rpm. After centrifugation at 48.000×g for 30 min at 4° C., the pellet was resuspended in cold 10 mM Tris-HCl buffer comprising 0.1 mM EDTA (pH 7.4), homogenized, and centrifuged as above. This pellet was further resuspended in a smaller volume of ice cold 10 mM Tris-HCl buffer comprising 0.1 mM EDTA (pH 7.4) and homogenized with a Polytron for 20-30 sec at 12.000 rpm. The protein content of this homogenate was determined with the Bio-Rad (Bradford) Protein Assay (Biorad Laboratories GmbH, München, Germany) according to the instructions of the manufacturer using gamma globulin as the standard. This homogenate was stored at −80° C. in aliquots and thawed immediately prior to use.
Aliquots of membrane preparations were thawed at RT, resupended in assay buffer (D2, D3: 50 mM Tris-HCl, 120 mM NaCl, 5 mM MgCl2, 1 mM EDTA, 5 mM KCl, 1.5 mM CaCl2, pH=7.4; 5-HT2A: 50 mM Tris-HCl, 10 mM MgCl2, 1 mM EGTA, pH=7.4), homogenized with a Polytron for 20-30 sec at 12.000 rpm and adjusted to a final concentration of approximately 7.5 μg protein/well (D2, D3) and 15 μg protein/well (5-HT2A), respectively.
The binding affinity (Ki) of the compounds was determined using radioligand binding. Membranes were incubated in a total volume of 200 μl with a fixed concentration of radioligand (final concentration approximately 0.7 nM [^3H]-spiperone for D2, 0.5 nM [^3H]-spiperone for D3, and 1.1 nM [^3H]-ketanserin for 5-HT2A) and ten concentrations of test compound in ranging between 10 μM-0.1 nM for 1 h at RT. At the end of the incubation, the reaction mixtures were filtered on to unifilter 96-well white microplates with bonded GF/C filters (Packard BioScience, Zürich, Switzerland; preincubated for 1 h in 0.1% polyethylenimine (PEI) in assay buffer) with a Filtermate 196 harvester (Packard BioScience) and washed 3 times with cold assay buffer. The nonspecific binding was determined with equally composed reaction mixtures in the presence of 10 μM unlabelled spiperone. Per well 45 μl of Microscint 40 (Perkin Elmer, Schwerzenbach, Switzerland) was added, plates for sealed, shaken for 20 min and counted for 3 min on a Topcount Microplate Scintillation Counter (Can berra Packard S A, Zürich, Switzerland) with quenching correction.
The CPM value for each duplicate of a concentration of competing compound was averaged (y1), then the % specific binding was calculated according to the equation (((y1−non-specific)/(total binding−non-specific))×100). Graphs were plotted with the % specific binding using XLfit, a curve fitting program that iteratively plots the data using Levenberg-Marquardt algorithm. The single site competition analysis equation used was y=A+((B−A)/(1+((x/C)D))), where y is the % specific binding, A is the minimum y, B is the maximum y, C is the IC50, x is the log 10 of the concentration of the competing compound and D is the slope of the curve (the Hill Coefficient). […] The affinity constant (Ki) was calculated using the Cheng-Prusoff equation Ki=(IC50/1+([L]/Kd), where [L] is the concentration of radioligand and Kd is the dissociation constant of the radioligand at the receptor as determined by the saturation isotherm.

human 5-HT2A receptor = human 5-HT2A receptor (Homo sapiens, UniProt P28223); assay: Radioligand binding to cloned human 5-HT2A receptor expressed in HEK-293 EBNA cells ([3H]-ketanserin)
human 5-HT2A receptor, sequence (P28223 whole entry): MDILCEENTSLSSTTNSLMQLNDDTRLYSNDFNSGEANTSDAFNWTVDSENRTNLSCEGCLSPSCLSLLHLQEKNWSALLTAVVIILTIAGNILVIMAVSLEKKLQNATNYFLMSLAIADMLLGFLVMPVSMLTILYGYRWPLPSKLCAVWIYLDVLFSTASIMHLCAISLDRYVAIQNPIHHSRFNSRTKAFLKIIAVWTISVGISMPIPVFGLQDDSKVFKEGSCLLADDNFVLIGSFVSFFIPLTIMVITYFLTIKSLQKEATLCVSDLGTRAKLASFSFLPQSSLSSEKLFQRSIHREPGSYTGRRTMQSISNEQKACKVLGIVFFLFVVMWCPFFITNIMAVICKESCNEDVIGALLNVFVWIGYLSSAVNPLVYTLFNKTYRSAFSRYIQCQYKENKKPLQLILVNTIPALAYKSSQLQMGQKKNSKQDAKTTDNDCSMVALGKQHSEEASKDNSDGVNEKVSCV

| Compound | Ki (human D2 receptor) [nM] | melting point [°C] | Ki (human D3 receptor) [nM] | Ki (human 5-HT2A receptor) [nM] | D2 Ki (human D2 receptor) |
| --- | --- | --- | --- | --- | --- |
| CC(C)(O)CC(=O)N[C@H]1CC[C@H](CCN2CCN(c3nccc4c3OCC4)CC2)CC1 [Example 46, trans-N-(4-{2-[4-(2,3-Dihydro-furo[2,3-c]pyridin-7-yl)-piperazin-1-yl]-ethyl}-cyclohexyl)-3-hydroxy-3-methyl-butyramide] | 904 | 139 | 14 | 49.6 | – |
| O=C(C[C@@H](O)C(F)(F)F)N[C@H]1CC[C@H](CCN2CCN(c3nccc4c3OCC4)CC2)CC1 [Example 47, trans-(R)—N-(4-{2-[4-(2,3-Dihydro-furo[2,3-c]pyridin-7-yl)-piperazin-1-yl]-ethyl}-cyclohexyl)-4,4,4-trifluoro-3-hydroxy-butyramide] | 943 | 214.5 | 15 | 89 | – |
| CC[C@H](O)CC(=O)N[C@H]1CC[C@H](CCN2CCN(c3nccc4c3OCC4)CC2)CC1 [Example 48, trans-(S)-3-Hydroxy-pentanoic acid (4-{2-[4-(2,3-dihydro-furo[2,3-c]pyridin-7-yl)-piperazin-1-yl]-ethyl}-cyclohexyl)-amide] | 1090 | 217 | 18.2 | 56.8 | – |
| O=C(CCO)N[C@H]1CC[C@H](CCN2CCN(c3nccc4c3OCC4)CC2)CC1 [Example 49, trans-N-(4-{2-[4-(2,3-Dihydro-furo[2,3-c]pyridin-7-yl)-piperazin-1-yl]-ethyl}-cyclohexyl)-3-hydroxy-propionamide] | 723 | 257 | 10.4 | 82.3 | – |
| O=C(N[C@H]1CC[C@H](CCN2CCN(c3nccc4c3OCC4)CC2)CC1)C(F)(F)F [Example 50, trans-N-(4-{2-[4-(2,3-Dihydro-furo[2,3-c]pyridin-7-yl)-piperazin-1-yl]-ethyl}-cyclohexyl)-2,2,2-trifluoro-acetamide] | 551 | 198.5 | 29.5 | 45.7 | – |
| CCCCC(=O)N[C@H]1CC[C@H](CCN2CCN(c3nccc4c3OCC4)CC2)CC1 [Example 51, Pentanoic acid trans-(4-{2-[4-(2,3-dihydro-furo[2,3-c]pyridin-7-yl)-piperazin-1-yl]-ethyl}-cyclohexyl)-amide] | 726 | 168 | 10.4 | 50.3 | – |
| CO[C@H]1CC[C@H](CC(=O)N[C@H]2CC[C@H](CCN3CCN(c4nccc5c4OCC5)CC3)CC2)C1 [Example 52, trans-N-(4-{2-[4-(2,3-Dihydro-furo[2,3-c]pyridin-7-yl)-piperazin-1-yl]-ethyl}-cyclohexyl)-2-((1S,3S)-3-methoxy-cyclopentyl)-acetamide] | 948 | 199 | 13.4 | 44 | – |
| O=CN[C@H]1CC[C@H](CCN2CCN(c3nccc4c3OCC4)CC2)CC1 [Example 53, trans-N-(4-{2-[4-(2,3-Dihydro-furo[2,3-c]pyridin-7-yl)-piperazin-1-yl]-ethyl}-cyclohexyl)-formamide] | 1110 | 153.5 | 23.1 | 70.2 | – |
| O=C(N[C@H]1CC[C@H](CCN2CCN(c3nccc4c3OCC4)CC2)CC1)c1ccc(Cl)cc1 [Example 54, trans-4-Chloro-N-(4-{2-[4-(2,3-dihydro-furo[2,3-c]pyridin-7-yl)-piperazin-1-yl]-ethyl}-cyclohexyl)-benzamide] | 2390 | 251.5 | 12.6 | 66.7 | – |
| O=C(N[C@H]1CC[C@H](CCN2CCN(c3nccc4c3OCC4)CC2)CC1)c1ccc(C(F)(F)F)cc1 [Example 55, trans-N-(4-{2-[4-(2,3-Dihydro-furo[2,3-c]pyridin-7-yl)-piperazin-1-yl]-ethyl}-cyclohexyl)-4-trifluoromethyl-benzamide] | – | 242.5 | 51.5 | 78.7 | inactive |
| CC(C)(C)c1ccc(C(=O)N[C@H]2CC[C@H](CCN3CCN(c4nccc5c4OCC5)CC3)CC2)cc1 [Example 56, trans-4-tert-Butyl-N-(4-{2-[4-(2,3-dihydro-furo[2,3-c]pyridin-7-yl)-piperazin-1-yl]-ethyl}-cyclohexyl)-benzamide] | 1930 | 183 | 79.5 | 67.4 | – |
| O=C(N[C@H]1CC[C@H](CCN2CCN(c3nccc4c3OCC4)CC2)CC1)c1ccc(N2CCCCC2)cc1 [Example 57, trans-N-(4-{2-[4-(2,3-Dihydro-furo[2,3-c]pyridin-7-yl)-piperazin-1-yl]-ethyl}-cyclohexyl)-4-piperidin-1-yl-benzamide] | 1760 | 182.5 | 42.7 | 50.6 | – |
| CC(C)(O)C(=O)N[C@H]1CC[C@H](CCN2CCN(c3nccc4c3OCC4)CC2)CC1 [Example 59, trans-N-(4-{2-[4-(2,3-Dihydro-furo[2,3-c]pyridin-7-yl)-piperazin-1-yl]-ethyl}-cyclohexyl)-2-hydroxy-2-methyl-propionamide] | 1130 | 241 | 44.7 | 8.48 | – |
| O=C(N[C@H]1CC[C@H](CCN2CCN(c3nccc4c3OCC4)CC2)CC1)c1ccc2c(c1)OCO2 [Example 60, Benzo[1,3]dioxole-5-carboxylic acid trans-(4-{2-[4-(2,3-dihydro-furo[2,3-c]pyridin-7-yl)-piperazin-1-yl]-ethyl}-cyclohexyl)-amide] | 348 | 213.5 | 7.32 | 23 | – |
| Cc1cc(C(=O)N[C@H]2CC[C@H](CCN3CCN(c4nccc5c4OCC5)CC3)CC2)on1 [Example 61, 3-Methyl-isoxazole-5-carboxylic acid trans-(4-{2-[4-(2,3-dihydro-furo[2,3-c]pyridin-7-yl)-piperazin-1-yl]-ethyl}-cyclohexyl)-amide] | 488 | 199 | 26.1 | 48.6 | – |
| COC(CC(=O)N[C@H]1CC[C@H](CCN2CCN(c3nccc4c3OCC4)CC2)CC1)OC [Example 62, trans-N-(4-{2-[4-(2,3-Dihydro-furo[2,3-c]pyridin-7-yl)-piperazin-1-yl]-ethyl}-cyclohexyl)-3,3-dimethoxy-propionamide] | 1280 | 218 | 7.22 | 38.2 | – |
| COC(CCC(=O)N[C@H]1CC[C@H](CCN2CCN(c3nccc4c3OCC4)CC2)CC1)OC [Example 63, trans-N-(4-{2-[4-(2,3-Dihydro-furo[2,3-c]pyridin-7-yl)-piperazin-1-yl]-ethyl}-cyclohexyl)-4,4-dimethoxy-butyramide] | 1920 | 204.5 | 22.1 | 35.3 | – |
| Cc1nc(-c2cccc(C(=O)N[C@H]3CC[C@H](CCN4CCN(c5nccc6c5OCC6)CC4)CC3)c2)no1 [Example 64, trans-N-(4-{2-[4-(2,3-Dihydro-furo[2,3-c]pyridin-7-yl)-piperazin-1-yl]-ethyl}-cyclohexyl)-3-(5-methyl-[1,2,4]oxadiazol-3-yl)-benzamide] | – | 227.5 | 4.43 | 54.4 | inactive |
| O=C(N[C@H]1CC[C@H](CCN2CCN(c3nccc4c3OCC4)CC2)CC1)c1ccc(-n2cccn2)cc1 [Example 65, trans-N-(4-{2-[4-(2,3-Dihydro-furo[2,3-c]pyridin-7-yl)-piperazin-1-yl]-ethyl}-cyclohexyl)-4-pyrazol-1-yl-benzamide] | 502 | 225.5 | 11.1 | 29.2 | – |
| O=C(N[C@H]1CC[C@H](CCN2CCN(c3nccc4c3OCC4)CC2)CC1)c1ccc(-n2cccc2)cc1 [Example 66, trans-N-(4-{2-[4-(2,3-Dihydro-furo[2,3-c]pyridin-7-yl)-piperazin-1-yl]-ethyl}-cyclohexyl)-4-pyrrol-1-yl-benzamide] | 240 | 236.5 | 13.8 | 38 | – |
| O=C(N[C@H]1CC[C@H](CCN2CCN(c3nccc4c3OCC4)CC2)CC1)c1ccc(Cl)cc1Cl [Example 67, trans-2,4-Dichloro-N-(4-{2-[4-(2,3-dihydro-furo[2,3-c]pyridin-7-yl)-piperazin-1-yl]-ethyl}-cyclohexyl)-benzamide] | 5050 | 243.5 | 47.2 | 93.3 | – |
| CN1CCN(c2ccc(C(=O)N[C@H]3CC[C@H](CCN4CCN(c5nccc6c5OCC6)CC4)CC3)cc2)CC1 [Example 68, trans-N-(4-{2-[4-(2,3-Dihydro-furo[2,3-c]pyridin-7-yl)-piperazin-1-yl]-ethyl}-cyclohexyl)-4-(4-methyl-piperazin-1-yl)-benzamide] | 120 | 235.5 | 6 | 4.86 | – |
| Cc1ccc(C(=O)N[C@H]2CC[C@H](CCN3CCN(c4nccc5c4OCC5)CC3)CC2)cn1 [Example 69, trans-N-(4-{2-[4-(2,3-Dihydro-furo[2,3-c]pyridin-7-yl)-piperazin-1-yl]-ethyl}-cyclohexyl)-6-methyl-nicotinamide] | 597 | 204 | 17.3 | 25.2 | – |
| O=C(N[C@H]1CC[C@H](CCN2CCN(c3nccc4c3OCC4)CC2)CC1)c1ccc(-c2ccccc2)cc1 [Example 70, Biphenyl-4-carboxylic acid trans-(4-{2-[4-(2,3-dihydro-furo[2,3-c]pyridin-7-yl)-piperazin-1-yl]-ethyl}-cyclohexyl)-amide] | 556 | 220.5 | 18.4 | 45.6 | – |
